The values that follow are results of earlier work, collected in paper PMC4875922 (Drugs in R&D, 2016).

The structures appear in SMILES notation.

Test in data set [1]: not given
The source holds these as a separate data set.

With `O=C(Nc1cccnn1)N1CCC(=Cc2cccc(Oc3ccc(C(F)(F)F)cn3)c2)CC1` [PF-04457845], the “effect in phase II study in osteoarthritic pain” value was “without effect”. Further, in data set [1], the linearity of pharmacokinetics result is on record as “non-linear pharmacokinetics”. The tolerability result in data set [1] (at doses that cause maximal inhibition of FAAH and elevation of plasma endocannabinoids) is “well tolerated”.
